In patent US8507516B2, “Azabicyclic compounds as alpha-7 nicotinic acetylcholine receptor ligands” (Bristol-Myers Squibb Company, priority 2009, dated 2013):
Like-named read-outs stand apart in the source and are kept apart here.

Target: T1, α-7 nicotinic ACh receptor ion channels expressed in mammalian HEK 293 cells (Rattus norvegicus, UniProt Q05941)
T1 construct: expressed in transfected cells
Experiment: Ca2+-sensitive, fluorescence-based assay for α-7 nicotinic acetylcholine receptor channel function (FLIPR)
Type: cell-based
Method: II) A Ca^2+-Sensitive, Fluorescence-Based Assay α-7 for Nicotinic Acetylcholine Receptor Channel Function In Mammalian Cells (“FLIPR”).
Lead compounds are evaluated for agonist activity at α-7, α3β4, α4αβ2, and α1β1δ1ε sub-types of nicotinic ACh receptor ion channels expressed in mammalian HEK 293 cells. Agonist potency and efficacy values are determined from kinetic fluorescence Ca^2+ influx measurements made using a 384 well FLIPR (Fluorescence Image Plate Reader). […] In this assay, channel expressing HEK cell lines seeded in 384 well assay plates are loaded with a membrane permeant fluorescent Ca^2+ indicator dye, whose 510 nm green emission signal increases in response to elevation of intracellular Ca^2+ concentration. The basal fluorescence from the cells is monitored in real time, followed by the acute addition of test compounds.
Reagents: The acetomethoxy (AM) ester of the Ca^2+ indicator dye Fluo-4 was obtained from InVitrogen, (Carlsbad, Calif.). Acetylcholine and all buffer constituents were purchased from Sigma Chemical Company, St. Louis, Mo. G418 and Minimal Essential Medium were purchased from InVitrogen Life Technologies, Carlsbad, Calif. Fetal bovine serum was purchased from (InVitrogen, Carlsbad, Calif.).
HEK-293 cells were grown in Minimal Essential Medium containing 10% (v/v) fetal bovine serum at 37° C. in a 5% CO2 incubator. HEK-293 cells stably expressing the ion channels were grown in the same medium with the addition of 500 μg/ml G418.
HEK-293 cells expressing the ion channels of interest were plated in 384 well, black-walled, clear-bottomed, poly-D-lysine coated plates at a density of ˜20,000 cells/well in 20 μl of Minimal Essential Medium containing 10% (v/v) fetal bovine serum and incubated for 2 days at 29° C. in a 5% CO2 incubator. Prior to assay, cells were loaded with the Fluo-4 AM ester. […] Dye loading was allowed to proceed for 90 minutes at room temperature at which time the dye loading solution was removed and replaced with 40 μl/well of Hanks buffer. Cells loaded with dye were loaded onto a FLIPR384 (Molecular Devices, Sunnyvale, Calif.). Fluo-4 dye was excited using the 488 nm line of an argon laser. Emission was filtered using a 540+/−30 nm bandpass filter. For evaluation of the effects of test compounds using the Ca^2+ flux assay, compounds to be tested were provided in assay ready plates. For nicotinic receptor ion channel expressing cells, the assay was initiated by the addition of 20 μl/well of Hanks buffer containing test compounds. For all assays, data were collected at 1 Hz for 10 seconds (baseline), at which time the compound containing stimulus buffers are added, and further measurements collected at 0.33 Hz for 3 min.
The statistical robustness of the nicotinic receptor Ca^2+ flux assays is determined from blanks and totals wells. […] The raw fluorescence units data files generated on the FLIPR plate reader are automatically exported and processed by in-house data analysis tools. The reduced percent activation data for each concentration of test compound are fit using MathIQ fitting engine (ID Business Solutions Limited, Surrey, UK). Data were analyzed by fitting maximum amplitudes of change in fluorescence, for Ca^2+ flux for a given condition of test compound. […] Test compound efficacy values (Ymax values) are expressed relative to a maximal response to acetylcholine in the total wells.

[1] = activity class based on EC50, Ca2+ influx, read-out: FLIPR α7 actvity rating (EC50)
[2] = agonist potency, Ca2+ influx, read-out: FLIPR α7-HI (EC50)
[3] = FLIPR α7-HI (EC50, nM), agonist potency, Ca2+ influx
[4] = FLIPR α7 actvity rating (EC50, nM), activity class based on EC50, Ca2+ influx

T1 sequence (Q05941 23-502): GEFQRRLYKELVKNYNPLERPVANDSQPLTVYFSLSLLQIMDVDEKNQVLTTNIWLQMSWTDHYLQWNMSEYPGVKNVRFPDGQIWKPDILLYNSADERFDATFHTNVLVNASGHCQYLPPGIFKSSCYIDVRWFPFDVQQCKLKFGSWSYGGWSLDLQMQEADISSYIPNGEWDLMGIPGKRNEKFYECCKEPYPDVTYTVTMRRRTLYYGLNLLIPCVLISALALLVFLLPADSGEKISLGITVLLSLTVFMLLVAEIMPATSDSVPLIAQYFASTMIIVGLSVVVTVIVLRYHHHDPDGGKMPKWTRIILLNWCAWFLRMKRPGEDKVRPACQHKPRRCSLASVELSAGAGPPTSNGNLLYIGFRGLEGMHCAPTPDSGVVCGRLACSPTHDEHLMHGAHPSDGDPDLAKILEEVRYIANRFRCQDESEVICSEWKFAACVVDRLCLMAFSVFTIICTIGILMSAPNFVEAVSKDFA

Row | SMILES | EC50 [1] | EC50 [2] | EC50 [3] | EC50 [4] | EC50 (read-out: FLIPR α7 actvity rating (EC50), activity class based on EC50, Ca2+ influx)
1 | COc1ccc2nc(NC3=NC[C@@]4(C[N@]5CCC[C@H]4C5)O3)sc2c1 (relative stereo) [Example 2, (5S*,5′R*)—N-(6-methoxybenzo[d]thiazol-2-yl)-4′H-1-azaspiro[bicyclo[3.2.1]octane-6,5′-oxazol]-2′-amine] | 100 to 1000 nM | 2050 nM | – | – | –
2 | c1cnc2sc(NC3=NC[C@@]4(C[N@]5CCC[C@H]4C5)O3)nc2c1 (relative stereo) [Example 3, (5S*,5′R*)—N-(thiazolo[5,4-b]pyridin-2-yl)-4′H-1-azaspiro[bicyclo[3.2.1]octane-6,5′-oxazol]-2′-amine] | – | – | 1080 nM | 100 to 1000 nM | –
3 | c1ccc2cc(NC3=NC[C@@]4(C[N@]5CCC[C@H]4C5)O3)ncc2c1 (single isomer, unassigned) [Example 4, (5S*,5R*)—N-(isoquinolin-3-yl)-4′H-1-azaspiro[bicyclo[3.2.1]octane-6,5′-oxazol]-2′-amine] | – | – | 820 nM | < 100 nM | –
4 | c1cnc2sc(NC3=NCC4(CN5CCCC4C5)O3)nc2c1 (single isomer, unassigned) [Example 5a] | – | – | 105 nM | < 100 nM | –
5 | c1cnc2sc(NC3=NC[C@@]4(C[N@@]5CCC[C@@H]4C5)O3)nc2c1 (relative stereo) [Example 5, (5R*,5′R*)—N-(thiazolo[5,4-b]pyridin-2-yl)-4′H-1-azaspiro[bicyclo[3.2.1]octane-6,5′-oxazol]-2′-amine] | – | – | 132 nM | < 100 nM | –
6 | c1ccc2sc(NC3=NC[C@@]4(C[N@]5CCC[C@H]4C5)O3)nc2c1 (relative stereo) [Example 1, (5S*,5′R*)—N-(benzo[d]thiazol-2-yl)-4′H-1-azaspiro[bicyclo[3.2.1]octane-6,5′-oxazol]-2′-amine] | 1000 to 100000 nM | > 100000 nM | – | – | –
7 | c1cnc2sc(NC3=NCC4(CN5CCCC4C5)O3)nc2c1 (single isomer, unassigned) [Example 5b] | – | – | 88 nM | – | < 100 nM
